These compounds were tested on parental and PPM1Dtrnc. immortalized human astrocytes (assay: not given). Conditions: not given.
Assay type: cell-based
Experimental: (§1) In vitro cellular viability assessments of immortalized human astrocytes, MCF7, and U2OS cell lines were made using a previously described, high-content, microscopy platform developed by our group. In brief, cells were plated in a 96-well plate at a density of 2000 cells/well, and incubated overnight. Drug treatment or vehicle (0.5% DMSO) control was administered, and cells were incubated for 72-96 hours as indicated. Plates were then washed with PBS and fixed with ice-cold 70% ethanol for 2 hours at 4° C. […] Cells were imaged using a Cytation3 imager (BioTek), and images were stitched and analyzed as described above. Viability assessments were made comparing drug treated to vehicle treated conditions. SU-DIPG and HSJD-DIPG-007 spheroid viability was assessed using CytoTox-Glo (Promega), according to the manufacturer's protocols. Spheroids were treated with FK866 for 120 hours before analysis using this method. IC50 calculations were made using GraphPad Prism, by fitting data to an [inhibitor] vs response−variable slope four parameter nonlinear regression (as depicted in the representative figures). siRNA Transfection and Viability Analysis Individual NAPRT targeting siRNAs were ordered from Dharmacon Inc. (Horizon Discovery), with target sequences listed in Table 1. The panel of siRNAs used for synthetic lethal viability screening was hand-selected and ordered from Dharmacon Inc. and were provided in ON-TARGET plus mixtures, each containing up to four unique siRNAs per gene. 2×10^5 astrocytes were reverse-transfected with different siRNAs (200 nM final concentration), using Lipofectamine RNAiMAX (Invitrogen), according to manufacturer's protocols. For individual siRNAs, cells were incubated for 72 hours, pelleted, and lyzed for immunoblotting. For the siRNA screen, cells were incubated for 24 hours and split to different condition plates, where they were incubated for an additional 24 hours. Cells were then treated with the described doses of FK866, and viability was assessed after 72 hours of drug treatment, using the image-based pipeline described above. Viability measurements were made for each siRNA, and normalized to FK866-untreated conditions.
Given the role of PPM1D in DDR pathways, we performed a small molecule synthetic lethal screen with a panel of inhibitors against key DNA repair and metabolic proteins, using methodology described previously by our group.

`O=P1(N(CCCl)CCCl)NCCCO1` (stereo not shown) [Cyclophosphamide] was tested, and the “IC50 ratio (Parental/PPM1Dtrnc.)” value was 0.90.

Same assay, conditions: ratio of IC50 in parental astrocytes to IC50 in PPM1Dtrnc. astrocytes; viability

In order of falling “IC50 ratio (Parental/PPM1Dtrnc.)” value:
1. C[C@@]1(CO)[C@H](O)CC[C@@]2(C)[C@H]1CC[C@H]1C[C@@H]3C[C@@]12CC[C@]3(O)CO [Aphidicolin]  1.75
2. CNc1cc(-c2cccc(Cl)c2Cl)nc(N)n1 [TH287]  1.52
3. Cn1ncc2c(N3CCOCC3)nc(-c3cccc(O)c3)nc21 [ETP 45658]  1.51
4. Cn1nnc2c(C(N)=O)ncn2c1=O [TMZ]  1.37
5. C/C(=N\NC(=O)c1cccc(S(=O)(=O)N2CCOCC2)c1)c1cc(Cl)ccc1O [SP2509]  1.36
6. O=C(c1cc(Cc2n[nH]c(=O)c3ccccc23)ccc1F)N1CCN(C(=O)C2CC2)CC1 [Olaparib]  1.32
7. COS(C)(=O)=O [MMS]  1.28
8. OCc1ccc(-c2ccc(-c3ccc(CO)s3)o2)s1 [RITA]  1.27
9. O=c1cc(N2CCOCC2)oc2c(-c3cccc4c3sc3ccccc34)cccc12 [NU-7441]  1.26
10. O=c1cc(-c2cccc3c2Sc2ccccc2S3)oc(N2CCOCC2)c1 [KU-55933]  1.18
11. C[C@@H](CN1CC(=O)NC(=O)C1)N1CC(=O)NC(=O)C1 [Dexrazoxane]  1.17
12. O=NN(CCCl)C(=O)NC1CCCCC1 [Lomustine]  1.10
13. CO[C@@]12[C@H](COC(N)=O)C3=C(C(=O)C(C)=C(N)C3=O)N1C[C@@H]1N[C@@H]12 [MMC]  1.08
14. Cn1c(CCCC(=O)O)nc2cc(N(CCCl)CCCl)ccc21 [Bendamustine]  1.07
15. CN(C)CCCNC(=O)c1ccc(-c2cc(O)c3ncccc3c2)cc1 [MLM324]  1.02
16. Cn1c(=O)n(-c2ccc(C(C)(C)C#N)cc2)c2c3cc(-c4cnc5ccccc5c4)ccc3ncc21 [BEZ-235]  1.01
17. CCc1c2c(nc3ccc(OC(=O)N4CCC(N5CCCCC5)CC4)cc13)-c1cc3c(c(=O)n1C2)COC(=O)[C@]3(O)CC [Irinotecan]  1.01
18. Cc1cc([C@@H](C)Nc2ccccc2C(=O)O)c2nc(N3CCOCC3)cc(=O)n2c1 [AZD6482]  1.00
19. O=C(O)c1ccc(CN2CCC(CN[C@@H]3C[C@H]3c3ccccc3)CC2)cc1 [G5K2879552]  1.00
20. Cn1ncnc1[C@H]1c2n[nH]c(=O)c3cc(F)cc(c23)N[C@@H]1c1ccc(F)cc1 [BMN673]  0.99
21. CC[C@@]1(O)C(=O)OCc2c1cc1n(c2=O)Cc2cc3c(CN(C)C)c(O)ccc3nc2-1 [Topotecan]  0.99
22. CC(N[C@H]1C[C@@H]1c1ccccc1)c1ccc2c(c1)OCCO2 (stereo partly shown) [LSD1-C76]  0.98
23. Cc1ccc([N+](=O)[O-])cc1S(=O)(=O)N(C)/N=C/c1cnc2ccc(Br)cn12 [PIK 75]  0.97
24. CNCc1ccc(-c2cc(-c3nc(-c4ccc(S(=O)(=O)C(C)C)cc4)cnc3N)on2)cc1 [VE822]  0.93
25. NS(=O)(=O)OC[C@@H]1C[C@@H](n2ccc3c(N[C@H]4CCc5ccccc54)ncnc32)C[C@@H]1O [MLN4924]  0.92
26. CCN1CCN(C(=O)Cc2ccc(Nc3ncc(F)c(Nc4ccc(C(=O)Nc5ccccc5Cl)cc4)n3)cc2)CC1 [TC-S 7010]  0.78
27. NC(=O)Nc1cc(-c2cccc(F)c2)sc1C(=O)N[C@H]1CCCNC1 [AZD7762]  0.77
28. CCN1CCN(CC(=O)Nc2ccc(-c3cccc4c(=O)cc(N5CCOCC5)oc34)c3sc4ccccc4c23)CC1 [KU 0060648]  0.69
29. C=CCn1c(=O)c2cnc(Nc3ccc(N4CCN(C)CC4)cc3)nc2n1-c1cccc(C(C)(C)O)n1 [MK-1775]  0.63

What follows are compounds tested on PPM1Dtrnc. astrocytes (assay: not given). Conditions: not given.
Experimental: PPM1D^trnc. astrocytes were treated with 50 µg/mL cycloheximide or 1 μM MG132 (both Sigma) for the indicated amount of time. Cells were then washed, pelleted, and lyzed for subsequent immunoblotting approaches, as described above. Quantification of immunoblot intensity was calculated using ImageJ software, and consisted of multiple (n=3) blots. Irradiation of cells was performed using an X-RAD KV irradiator (Precision X-ray), and treatment consisted of an unfractionated, 10 Gy dose. PPM1D inhibitor treatment with GSK2830371 (Selleckchem), consisted of 50 nM treatment, 24 hours prior to IR. FK866 (Selleckchem), GPP78 (Tocris Bioscience), STF118804 (Tocris Bioscience), STF31 (Tocris Bioscience), 5-azacytidine (Selleckchem), and Decitabine (Selleckchem) were dissolved in DMSO and used for treatment as indicated.
as §1

`NC(=O)c1ccc[n+]([C@@H]2O[C@H](CO)[C@@H](O)[C@H]2O)c1` [NR, nicotinamide riboside] was tested, and the “Effect on the cytotoxicity of FK866” value was “completely mitigated”.

Same assay, conditions: 72 hr treatment; structurally distinct NAMPT inhibitors

With `O=C(CCCCCCCn1cc(-c2cccnc2)nn1)Nc1ccccc1-c1ccccc1` [GPP78] the “NAMPT inhibitor sensitivity of PPM1D mutant astrocytes” value (“NAMPT inhibitor sensitivity” for short) was “confirmed”.
In the case of `CC(C)(C)c1ccc(S(=O)(=O)NCc2ccc(C(=O)Nc3cccnc3)cc2)cc1` [STF31], the “NAMPT inhibitor sensitivity” value is reported as “confirmed”.
`Cc1ccc(S(=O)(=O)Cc2nc(-c3ccc(C(=O)NCc4cccnc4)cc3)oc2C)cc1` [STF118804] was tested, and the “NAMPT inhibitor sensitivity” value was “confirmed”.

Same assay, conditions: PPM1Dtrnc. cells; 72 hr concurrent treatment with FK866

For `NC(=O)c1cccnc1` [NAM, nicotinamide], the “Effect on the cytotoxicity of FK866” value was “strongly antagonized”.

The compounds below were run on PPM1D (γH2AX foci in parental and PPM1Dtrnc. astrocytes) (assay: γH2AX foci formation after ionizing radiation). Conditions: 10 Gy IR; 50 nM inhibitor 24 hours prior to IR.
Assay type: cell-based, human
Experimental: Astrocyte cell lines were seeded and incubated overnight, before radiation. Plates were then collected at indicated time points, fixed, permeabilized/blocked, and stained with primary and secondary antibodies for fluorescent imaging. […] Cells were subsequently washed in 1×PBS, followed by a joint permeabilization and blocking step in incubation buffer (5% BSA and 0.5% TritonX100, in PBS) for 1 hour. Primary antibody raised against γH2AX […] (Millipore 05-636) was added at a dilution of 1:1000 in incubation buffer, and incubated overnight at 4° C. Plates were washed, followed by a 1 hour RT incubation with alexafluor-conjugated secondary antibodies (ThermoFisher A21425 or A11029, 1:10,000) and a nuclear dye, […] Hoechst 33342 (Sigma), in secondary buffer (0.5% TritonX100, in PBS). Plates were again washed, and imaged in PBS using the Cytation3 imaging system (BioTek). Images were stitched using Gen5 v2.09 software (BioTek), and both foci and cell numbers were counted using CellProfiler image processing software.

With `Cc1ncc(Cl)cc1NCc1ccc(C(=O)N[C@@H](CC2CCCC2)C(=O)NC2CC2)s1` [GSK2830371] the “Differences in γH2AX foci between parental and PPM1Dtrnc. astrocytes after IR” value was “abolished”.

Each compound was assayed on NAD and NADP levels in WT and PPM1Dtrnc. astrocytes (assay: NAD / NADP quantification in astrocytes). Conditions: PPM1Dtrnc. astrocytes; exogenous NR (50 μM, 24 hrs).
Assay type: cell-based, human
Experimental: The NAD metabolome was quantitatively analyzed using LC-MS/MS, using two separations on Hypercarb and 13C metabolite standards. Subsequent NAD level analyses were performed using a NAD/NADH Quantification kit (Sigma), as per the manufacturer's specifications. Me/hME-DIP, Bisulfite Conversion, and Global 5-hmC Detection Genomic DNA was purified using the Wizard Genomic DNA purification kit (Promega), and subsequently immunoprecipitated or bisulfite-converted. […] Immunoprecipitated DNA was extracted with phenol/chloroform and analyzed using quantitative PCR (qPCR), as described below. Bisulfite conversion was performed via EpiMark Bisulfite Conversion kit (NEB). Modified DNA was then amplified using EpiMark Hot Start Taq DNA polymerase (NEB), with primers listed in Table 1, and purified with a PCR purification kit (Qiagen). Methylation was then assessed through Sanger-sequencing of the NAPRT promoter. Global 5-hydroxymethylcytosine levels were assessed via the Global 5-hmC quantification kit (Active Motif), according to manufacturer's protocols. Quantitative PCR (qPCR) mRNA transcripts were purified from cells using a RNAeasy kit (Qiagen) and subsequently reverse transcribed using a High Capacity cDNA reverse transcription kit (Applied Biosystems). PPM1D and NAPRT gene expression levels were assessed through qPCR with TaqMan fluorescent probes (all from Applied Biosystems): PPM1D (4331182), NAPRT (4351372), and Actin (4333762F), according to manufacturer's protocol. Expression level fold change was calculated via ΔΔCt comparison, using Actin as a reference gene. The NAPRT promoter region was quantitated via qPCR using Fast Start Universal SYBR Green Master with ROX (Roche), and primers listed in Table 1. All qPCR reactions were run on a StepOnePlus Real Time PCR system (Applied Biosystems).

With `NC(=O)c1ccc[n+]([C@@H]2O[C@H](CO)[C@@H](O)[C@H]2O)c1` [NR, nicotinamide riboside] the “Basal NAD levels” value was “sufficiently increased”.
